Measured values reported in ChEMBL document CHEMBL1770094, “Design, synthesis and antiproliferative activity of novel aminosubstituted benzothiopyranoisoindoles” (Bioorg Med Chem Lett, 2011).

What was measured:
[1] = Cytotoxicity against human MES-SA cells assessed as inhibition of cell proliferation after 72 hrs by MTT assay; assay type: functional, cell-based
HCT-116 = test: Cytotoxicity against human HCT116 cells assessed as inhibition of cell proliferation after 72 hrs by MTT assay; assay type: functional, cell-based; conditions: HCT-116, 72 h
MES-SA = test: Resistant factor, ratio of IC50 for doxorubicin-resistant human MES-SA/Dx5 cells to IC50 for doxorubicin-sensitive human MES-SA cells; assay type: functional
[2] = Cytotoxicity against human MES-SA/Dx5 cells assessed as inhibition of cell proliferation after 72 hrs by MTT assay; assay type: functional, cell-based; conditions: MES-SA/Dx5, 72 h

Structure (SMILES)	IC50 [1]	IC50 (HCT-116)	Ratio IC50 (MES-SA)	IC50 [2]
COc1cccc2c1C(=O)c1c(O)c3c(c(O)c1C2=O)C[C@@](O)(C(=O)CO)C[C@@H]3O[C@H]1C[C@H](N)[C@H](O)[C@H](C)O1 [DOXORUBICIN]	0.03 µM	0.16 µM	79.93	2.4 µM
CCN(CC)CCn1cc2c([N+](=O)[O-])ccc3c2c1-c1ccccc1S3(=O)=O	3.98 µM	6.02 µM	0.66	2.61 µM
O=[N+]([O-])c1ccc2c3c(n(CCN4CCCCC4)cc13)-c1ccccc1S2	16.7 µM	8.09 µM	0.55	9.16 µM
O=[N+]([O-])c1ccc2c3c(n(CCN4CCCCC4)cc13)-c1ccccc1S2(=O)=O	3.98 µM	5.47 µM	0.64	2.55 µM
O=[N+]([O-])c1ccc2c3c(n(CCN4CCCC4)cc13)-c1ccccc1S2	1.72 µM	1.15 µM	1.25	2.15 µM
O=C1c2c(O)ccc(O)c2C(=O)c2c(NCCNCCO)ccc(NCCNCCO)c21 [MITOXANTRONE]	0.012 µM	0.022 µM	6.67	0.08 µM
CCN(CC)CCn1cc2c([N+](=O)[O-])ccc3c2c1-c1ccccc1S3	1.93 µM	2.14 µM	2.63	5.08 µM
CCN(CC)CCNc1ccc2c3c(n(CCN(CC)CC)cc13)-c1ccccc1S2(=O)=O	68.2 µM	60.4 µM	–	> 100 µM
CN(C)CCn1cc2c([N+](=O)[O-])ccc3c2c1-c1ccccc1S3(=O)=O	3.52 µM	5.42 µM	1.47	5.18 µM
CN(C)CCn1cc2c([N+](=O)[O-])ccc3c2c1-c1ccccc1S3	4.44 µM	2.1 µM	0.38	1.7 µM
O=[N+]([O-])c1ccc2c3c(n(CCN4CCCC4)cc13)-c1ccccc1S2(=O)=O	2.3 µM	7.04 µM	0.63	1.45 µM
